These results are taken from patent US9718790B2, “Triazine derivative and pharmaceutical composition having an analgesic activity comprising the same” (SHIONOGI & CO., LTD., priority 2010, dated 2017).

The first assay deals with human P2X3 receptor (Homo sapiens (Human), UniProt P56373). Nature of the assay: Evaluation of human P2X3 receptor inhibitory activity (Fluo-3 calcium fluorescence, FDSS 3000, ATP stimulation).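 Note: stimulus was 50 nM ATP with fluorescence followed for 3 min, and the response per well was peak post-ATP fluorescence divided by the reading at measurement start.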 Conditions: C6BU-1 cells stably expressing human P2X3 receptor. The format is cell-based.
human P2X3 receptor, sequence (P56373 whole entry): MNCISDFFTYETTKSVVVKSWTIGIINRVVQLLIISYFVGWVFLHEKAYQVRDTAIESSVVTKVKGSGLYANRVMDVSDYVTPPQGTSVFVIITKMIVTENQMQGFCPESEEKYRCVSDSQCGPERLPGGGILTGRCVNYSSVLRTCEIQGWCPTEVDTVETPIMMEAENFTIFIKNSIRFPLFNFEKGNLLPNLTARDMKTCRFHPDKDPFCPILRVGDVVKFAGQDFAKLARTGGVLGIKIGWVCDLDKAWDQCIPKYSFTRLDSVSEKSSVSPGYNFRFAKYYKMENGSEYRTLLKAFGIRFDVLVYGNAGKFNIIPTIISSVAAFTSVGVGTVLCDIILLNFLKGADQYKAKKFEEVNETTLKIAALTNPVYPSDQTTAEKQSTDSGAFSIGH
In general, IC50 refers to the point on the concentration scale where inhibition reaches its midpoint. For `CCn1c(=O)[nH]/c(=N\c2ccc(Oc3cncc(C(N)=O)c3)cc2)n(Cc2ccc(Cl)cc2)c1=O` [Compound I-1996], the IC50 is 4 nM.
Take `COC(=O)[C@@H](C)Cn1c(=O)[nH]/c(=N\c2ccc(Oc3ccnc(O)c3)cc2)n(Cc2ccc(C)cc2)c1=O` [Compound I-1432]: the IC50 was found to be 2 nM.
The same measure, in the same setting: with `CC[C@H](C)Oc1ccc(/N=c2\[nH]c(=O)n(C[C@H](C)C(=O)O)c(=O)n2Cc2ccc(Cl)cc2)cc1` [Compound I-0755] the figure was 24 nM.
For `CNC(=O)Cn1c(=O)[nH]/c(=N\c2ccc(Oc3ccnc(C)c3)cc2)n(Cc2ccc(Cl)cc2)c1=O` [Compound I-1927], the IC50 amounted to 7 nM.
Still for that read-out and setting: under `Cc1cc(/N=c2\[nH]c(=O)n(C[C@H](C)C(=O)O)c(=O)n2Cc2ccc(Cl)cc2)ccc1OCC(F)F` [Compound I-0741] stands 50 nM; under `CCCCOc1ccc(/N=c2\[nH]c(=O)n(C[C@H](C)C(=O)OC)c(=O)n2Cc2ccc(Cl)cc2)cc1` [Compound I-0814], 17 nM.
In the case of `CCn1c(=O)[nH]/c(=N\c2ccc(Oc3ccnc(N)c3)cc2)n(Cc2ccc(Cl)cc2)c1=O` [Compound I-2166], the IC50 stood at 10 nM.
On the same count and under the same terms, under `CCn1c(=O)[nH]/c(=N\c2ccc(Oc3cnc(C(=O)OC)cn3)cc2)n(Cc2ccc(Cl)cc2)c1=O` [Compound I-2212] stands 2 nM.
Still for that read-out and setting: with `CCCn1c(=O)[nH]/c(=N\c2ccc(Oc3ccnc(C(=O)O)c3)cc2)n(Cc2ccc(Cl)cc2)c1=O` [Compound I-2162] the figure was 6 nM; with `CCCOc1ccc(/N=c2\[nH]c(=O)n(C[C@H](C)C(=O)O)c(=O)n2Cc2ccc(Cl)cc2)cc1C` [Compound I-0711], 40 nM.
The same measure, in the same setting: under `COC(=O)[C@@H](C)[C@@H](C)n1c(=O)[nH]/c(=N\c2ccc(N3CCCCC3)cc2)n(Cc2ccc(Cl)cc2)c1=O` [Compound I-1454] stands 23 nM; under `O=C(O)Cn1c(=O)[nH]/c(=N\c2ccc(Oc3ccnc(O)c3)cc2)n(Cc2ccc(Cl)cc2)c1=O` [Compound I-1932], 95 nM.
In the case of `Cc1[nH]c2ccc(/N=c3\[nH]c(=O)n(CCO)c(=O)n3Cc3ccc(Cl)cc3)cc2c1C` [Compound I-2042], the IC50 came out at 23 nM.
Same read-out and setting: with `CCc1nc2ccc(/N=c3\[nH]c(=O)n(CCCCC(=O)OC)c(=O)n3Cc3ccc(C)cc3)cc2s1` [Compound I-2156] the figure was 2 nM; with `CCOC(=O)[C@H](CCn1c(=O)[nH]/c(=N\c2ccc(OC(C)C)c(C)c2)n(Cc2ccc(Cl)cc2)c1=O)NC(=O)OC(C)(C)C` [Compound I-0717, (S)-1-(4-chlorobenzyl)-3-(3-t-butoxycarbonylamino-3-ethoxycarbonyl-propyl)-6-(3-mehyl-4-isopropoxyphenylimino)-1,3,5-triazinane-2,4-dion], 21 nM; with `COc1ccc(/N=c2\[nH]c(=O)n(C[C@H](C)C(=O)O)c(=O)n2Cc2ccc(Cl)cc2)cc1C(F)(F)F` [Compound I-0797], 701 nM.
On the same count and under the same terms, under `CC(C)Cc1ccc(/N=c2\[nH]c(=O)n(C[C@H](C)C(=O)O)c(=O)n2Cc2ccc(Cl)cc2)cc1Cl` [Compound I-1372] stands 5 nM; under `C[C@@H](Cn1c(=O)[nH]/c(=N\c2cccc(C(F)(F)F)c2)n(Cc2ccc(Cl)cc2)c1=O)C(=O)O` [Compound I-0628], 61 nM.
Still for that read-out and setting: under `COC(=O)[C@@H](C)Cn1c(=O)[nH]/c(=N\c2ccc(N3CCCCCC3)cc2)n(Cc2ccc(Cl)cc2)c1=O` [Compound I-1233] stands 325 nM.
In the case of `COc1cc(/N=c2\[nH]c(=O)n(CCC(=O)O)c(=O)n2Cc2ccc(Cl)cc2)ccc1CC(C)C` [Compound I-1355], the IC50 was found to be 177 nM.
The same measure, in the same setting: with `Cc1ccc(Oc2ccc(/N=c3\[nH]c(=O)n(CCC(=O)O)c(=O)n3Cc3ccc(Cl)cc3)cc2)c(C)n1` [Compound I-1413] the figure was 72 nM; with `CC(C)Oc1ccc(/N=c2\[nH]c(=O)n(Cc3nnn[nH]3)c(=O)n2Cc2ccc(Cl)cc2)cc1F` [Compound I-1297], 26 nM; with `Cc1ccc(Cn2c(=O)n(CCCC(=O)O)c(=O)[nH]/c2=N\c2ccc(Oc3ccnc(C)c3)cc2)cc1` [Compound I-1405], 26 nM.
Regarding `Cc1nc2ccc(/N=c3\[nH]c(=O)n(CCC(=O)O)c(=O)n3CC3CCC(C)CC3)cc2s1` (stereo not drawn) [Compound I-1994], the IC50 came to 10 nM.

Still in this assay, the particulars now being: C6BU-1 cells stably expressing human P2X3 receptor, Fluo-3 fluorescence, FDSS 3000.
For the molecule `NC(=O)c1cc(Oc2ccc(/N=c3\[nH]c(=O)[nH]c(=O)n3Cc3ccc(Cl)cc3)cc2)ccn1` [Compound I-1896], the IC50 was found to be 14 nM.
On the same count and under the same terms, with `COC(=O)[C@@H](C)Cn1c(=O)[nH]/c(=N\c2ccc(OCC(C)(C)C)cc2)n(Cc2ccc(C)cc2)c1=O` [Compound I-1050] the figure was 389 nM; with `CCOC(=O)CCn1c(=O)[nH]/c(=N\c2ccc(OC(C)C)c(C)c2)n(Cc2ccc(Cl)cc2)c1=O` [Compound I-1155], 9 nM.
`Cc1oc2ccc(/N=c3\[nH]c(=O)n(C[C@H](C)C(=O)O)c(=O)n3Cc3ccc(Cl)cc3)cc2c1C` [Compound I-1653]: the IC50 was found to be 14 nM.
Same read-out and setting: under `CCc1nc2ccc(/N=c3\[nH]c(=O)n(CC(=O)NC)c(=O)n3Cc3ccc(Cl)cc3)cc2s1` [Compound I-1807] stands 6 nM.
The same measure, in the same setting: with `CCn1c(=O)[nH]/c(=N\c2ccc(Oc3cc(O)ncn3)cc2)n(Cc2ccc(Cl)cc2)c1=O` [Compound I-1888] the figure was 10 nM.
Same read-out and setting: with `CCCOc1ccc(/N=c2\[nH]c(=O)n(C[C@@H](CC)C(=O)OC)c(=O)n2Cc2ccc(Cl)cc2)cc1` [Compound I-1038] the figure was 6 nM.
For the molecule `CC(C)c1nc2ccc(/N=c3\[nH]c(=O)n([C@@H](C)[C@@H](C)C(=O)O)c(=O)n3Cc3ccc(Cl)cc3)cc2s1` [Compound I-1585], the IC50 is 14 nM.
Same read-out and setting: with `Cc1nc2ccc(/N=c3\[nH]c(=O)n(CCCO)c(=O)n3Cc3ccc(Cl)cc3)cc2s1` [Compound I-1619] the figure was 6 nM; with `CCc1ccc(Cn2c(=O)n(C[C@H](C)C(=O)O)c(=O)[nH]/c2=N\c2ccc(OC(C)C)cc2)cc1` [Compound I-1140], 44 nM; with `C[C@@H](C(=O)O)[C@H](C)n1c(=O)[nH]/c(=N\c2ccc3c(O)cccc3c2)n(Cc2ccc(Cl)cc2)c1=O` [Compound I-1826], 751 nM.
On the same count and under the same terms, with `CCc1nc2ccc(/N=c3\[nH]c(=O)n(CCC(N)=O)c(=O)n3Cc3ccc(Cl)cc3)cc2s1` [Compound I-1768] the figure was 6 nM; with `CCc1nc2ccc(/N=c3\[nH]c(=O)n(CC4(C(=O)O)CC4)c(=O)n3Cc3ccc(C)cc3)cc2s1` [Compound I-1556], 11 nM.
Still for that read-out and setting: under `CCCOc1ccc(/N=c2\[nH]c(=O)n(CC3(C(=O)O)CC3)c(=O)n2Cc2ccc(Cl)cc2)cc1Cl` [Compound I-0986] stands 31 nM; under `CC(C)Oc1ccc(/N=c2\[nH]c(=O)n(CCC(=O)O)c(=O)n2CC2C[C@H]3CC[C@@H]2C3)cc1F` (stereo partly drawn) [Compound I-1862], 552 nM; under `Cc1ccc(Cn2c(=O)n(C[C@H](C)C(=O)O)c(=O)[nH]/c2=N\c2ccc(OC(C)C)c(C#N)c2)cc1` [Compound I-0961], 74 nM.
In the case of `CCc1cc(/N=c2\[nH]c(=O)n(C[C@H](C)C(=O)O)c(=O)n2Cc2ccc(C)cc2)ccc1OC(C)C` [Compound I-0911, (S)-1-(4-methylbenzyl)-6-(3-ethyl-4-isopropoxyphenylimino)-3-(2-hydroxycarbonylpropyl)-1,3,5-triazinane-2,4-dion], the half-inhibitory concentration (IC50) came out at 15 nM.

Staying with this assay, now noted: human P2X3 receptor, Test Example 1.
Take `Cc1ccc(Cn2c(=O)n(C)c(=O)[nH]/c2=N\c2ccc(Oc3cc(C#N)ccn3)cc2)cc1` [Compound I-2340]: the IC50 turned out to be 13 nM.
Same read-out and setting: under `CCOC(=O)CCn1c(=O)[nH]/c(=N\c2ccc(Oc3ccc(OC)nc3)cc2)n(Cc2ccc(Cl)cc2)c1=O` [Compound I-1523] stands 3 nM.
On to `CCOc1ccc(/N=c2\[nH]c(=O)n(CCC(=O)O)c(=O)n2Cc2ccc(C)cc2)cc1Cl` [Compound I-0882], for which the IC50 worked out at 100 nM.
On the same count and under the same terms, under `COC(=O)C[C@@H](C)n1c(=O)[nH]/c(=N\c2ccc(OC(C)C)c(Cl)c2)n(Cc2ccc(C)cc2)c1=O` [Compound I-0875] stands 14 nM.
Same read-out and setting: with `CCn1c(=O)[nH]/c(=N\c2ccc(Oc3ccnc(C(=O)NC)c3)c(F)c2)n(Cc2ccc(Cl)cc2)c1=O` [Compound I-2432] the figure was 2 nM.
Still for that read-out and setting: under `CCc1cc2cc(/N=c3\[nH]c(=O)n(CCCOC4CCCCO4)c(=O)n3Cc3ccc(Cl)cc3)ccc2o1` (stereo not drawn) [Compound I-2335] stands 6 nM.
`COC(=O)[C@H](C)Cn1c(=O)[nH]/c(=N\c2ccc(N3CCCCC3)cc2)n(Cc2ccc(Cl)cc2)c1=O` [Compound I-1484]: the IC50 came to 6 nM.
The same measure, in the same setting: under `COC(=O)[C@@H](C)Cn1c(=O)[nH]/c(=N\c2ccc(OCC3CC3)cc2)n(Cc2ccc(Cl)cc2)c1=O` [Compound I-0833] stands 15 nM; under `O=c1[nH]/c(=N\c2ccc(Oc3ccon3)cc2)n(Cc2ccc(Cl)cc2)c(=O)n1C(CO)CO` [Compound I-2542], 186 nM; under `CC(CO)(CO)Cn1c(=O)[nH]/c(=N\c2ccc(OCC3CC3)cc2)n(Cc2ccc(F)cc2)c1=O` [Compound I-2617], 42 nM.
Same read-out and setting: with `CCn1c(=O)[nH]/c(=N\c2ccc(Oc3ccc(C(N)=O)c(F)c3)cc2)n(Cc2ccc(Cl)cc2)c1=O` [Compound I-2234] the figure was 2 nM.
On the same count and under the same terms, with `COC(=O)[C@@H](C)Cn1c(=O)[nH]/c(=N\c2ccc(CC(C)(C)O)c(Cl)c2)n(Cc2ccc(C)cc2)c1=O` [Compound I-1527] the figure was 5 nM; with `CCn1c(=O)[nH]/c(=N\c2ccc(Oc3nc(C(N)=O)cs3)cc2)n(Cc2ccc(Cl)cc2)c1=O` [Compound I-2608], 6 nM; with `COCCn1c(=O)[nH]/c(=N\c2ccc(Oc3ccnc(C(=O)OC)c3)cc2)n(Cc2ccc(Cl)cc2)c1=O` [Compound I-2536], 5 nM.
On to `Cc1ccc(Cn2c(=O)n(C[C@H](C)C(=O)O)c(=O)[nH]/c2=N\c2ccc(C3CC3)c(Cl)c2)cc1` [Compound I-1489], for which the IC50 turned out to be 254 nM.
On the same count and under the same terms, under `Cc1ccc2cc(/N=c3\[nH]c(=O)n(C[C@H](C)C(=O)O)c(=O)n3Cc3ccc(Cl)cc3)ccc2n1` [Compound I-0864] stands 35 nM.
